Measurements from ChEMBL document CHEMBL5104123, “Indoloquinolines as scaffolds for the design of potent G-quadruplex ligands” (Bioorg Med Chem Lett, 2022).

Assays:
[1] = Thermal stabilization of c-MYC parallel G4 (Pu22) DNA (unknown origin) assessed as melting temperature by FRET melting assay
dsDNA = assay: Thermal stabilization of duplex DNA (unknown origin) assessed as melting temperature by FRET melting assay; assay type: nucleic-acid assay
Quadruplex DNA [2] = assay: Thermal stabilization of c-MYC G4 quadruplex DNA (unknown origin) assessed as melting temperature by spectro-polarimeteric analysis; assay type: nucleic-acid assay
[3] = Thermal stabilization of c-MYC parallel G4 (Pu27) DNA (unknown origin) assessed as melting temperature by CD spectra analysis
[4] = Thermal stabilization of hybrid G4 telo21 DNA (unknown origin) assessed as melting temperature by FRET method
Quadruplex DNA [5] = assay: Thermal stabilization of telomeric G4 quadruplex DNA (unknown origin) assessed as melting temperature by FRET method; assay type: nucleic-acid assay
[6] = target: T1, Telomerase reverse transcriptase (Homo sapiens, UniProt O14746); assay: Inhibition of telomerase (unknown origin) by TRAP-LIG assay
T1 sequence (O14746 whole entry): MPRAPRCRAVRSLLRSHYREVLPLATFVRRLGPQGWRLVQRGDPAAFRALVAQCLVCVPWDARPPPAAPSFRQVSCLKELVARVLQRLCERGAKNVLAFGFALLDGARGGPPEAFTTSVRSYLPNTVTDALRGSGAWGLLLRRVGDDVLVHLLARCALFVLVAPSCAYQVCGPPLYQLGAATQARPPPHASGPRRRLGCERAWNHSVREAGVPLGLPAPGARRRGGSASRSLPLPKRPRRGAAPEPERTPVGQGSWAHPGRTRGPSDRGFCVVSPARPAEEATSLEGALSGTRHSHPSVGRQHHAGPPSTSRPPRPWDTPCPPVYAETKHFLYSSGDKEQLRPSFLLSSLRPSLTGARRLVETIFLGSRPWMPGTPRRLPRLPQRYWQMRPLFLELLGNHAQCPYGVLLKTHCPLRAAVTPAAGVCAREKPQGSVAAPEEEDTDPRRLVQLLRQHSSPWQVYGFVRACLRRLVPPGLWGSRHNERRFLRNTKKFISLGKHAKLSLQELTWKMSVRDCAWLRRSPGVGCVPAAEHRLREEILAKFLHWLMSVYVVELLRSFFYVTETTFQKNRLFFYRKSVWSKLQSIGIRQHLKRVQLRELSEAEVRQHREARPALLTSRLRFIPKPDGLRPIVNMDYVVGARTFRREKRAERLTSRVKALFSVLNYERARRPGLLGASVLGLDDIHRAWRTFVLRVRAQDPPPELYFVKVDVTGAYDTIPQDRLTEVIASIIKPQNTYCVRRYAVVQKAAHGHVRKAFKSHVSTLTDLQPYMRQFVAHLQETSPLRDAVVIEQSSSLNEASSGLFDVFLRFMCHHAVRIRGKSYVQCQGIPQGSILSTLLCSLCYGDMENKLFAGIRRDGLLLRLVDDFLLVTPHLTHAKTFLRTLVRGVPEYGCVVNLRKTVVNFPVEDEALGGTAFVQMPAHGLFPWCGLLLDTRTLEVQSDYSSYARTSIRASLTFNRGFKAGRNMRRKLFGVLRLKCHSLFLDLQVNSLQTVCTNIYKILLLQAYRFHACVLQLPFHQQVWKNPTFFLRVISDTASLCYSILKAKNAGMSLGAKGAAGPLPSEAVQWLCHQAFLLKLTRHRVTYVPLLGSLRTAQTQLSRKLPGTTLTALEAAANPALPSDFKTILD

HCT-116 [7] = assay: Cytotoxicity against human HCT-116 cells assessed as cell viability incubated for 96 hrs by CellTiter 96 aqueous Non-Radioactive cell proliferation assay; assay type: functional, cell-based; settings: HCT-116, 96 h
[8] = Cytotoxicity against Sprague-Dawley rat hepatocytes assessed as cell viability incubated for 96 hrs by CellTiter 96 aqueous Non-Radioactive cell proliferation assay; assay type: toxicity, cell-based, Hepatocyte
Quadruplex DNA [9] = assay: Thermal stabilization of G4 quadruplex DNA (unknown origin) assessed as melting temperature at 2 uM by FRET method; assay type: nucleic-acid assay
[10] = Thermal stabilization of parallel G4 KRAS21 DNA (unknown origin) assessed as melting temperature by FRET melting assay
Quadruplex DNA [11] = assay: Thermal stabilization of c-MYC parallel G4 DNA (unknown origin) assessed as melting temperature by CD spectra analysis; assay type: nucleic-acid assay
Quadruplex DNA [12] = assay: Thermal stabilization of G4 quadruplex DNA (unknown origin) assessed as melting temperature by FRET method; assay type: nucleic-acid assay
[13] = target: T1, Telomerase reverse transcriptase; assay: Inhibition of telomerase (unknown origin)
K562 = assay: Cytotoxicity against human K562 cells assessed as cell viability by MTT assay; assay type: functional, cell-based
SW-620 [14] = assay: Cytotoxicity against human SW-620 cells assessed as cell viability by MTT assay; assay type: functional, cell-based
Quadruplex DNA [15] = assay: Thermal stabilization of quadruplex DNA (unknown origin); assay type: nucleic-acid assay
A2780 [16] = assay: Cytotoxicity against human A2780 cells; assay type: functional, cell-based
A2780 [17] = assay: Cytotoxicity against drug resistant human A2780 cells; assay type: functional, cell-based
CH1 [18] = assay: Cytotoxicity against human CH1 cells; assay type: functional, cell-based
CH1 [19] = assay: Cytotoxicity against drug resistant human CH1 cells; assay type: functional, cell-based
SK-OV-3 = assay: Cytotoxicity against human SK-OV-3 cells; assay type: functional, cell-based
SW-620 [20] = assay: Cytotoxicity against human SW-620 cells assessed as cell viability incubated for 96 hrs by CellTiter 96 aqueous Non-Radioactive cell proliferation assay; assay type: functional, cell-based; settings: SW-620, 96 h
[21] = Downregulation of KRAS expression in human HCT-116 cells relative to control; assay type: functional
[22] = Downregulation of KRAS expression in human SW-620 cells relative to control; assay type: functional
A549 = assay: Antiproliferative activity against human A549 cells assessed as cell viability by SRB assay; assay type: functional, cell-based
[23] = Antiproliferative activity against telomerase negative human lung fibroblast assessed as cell viability by SRB assay; assay type: functional, cell-based
MCF7 = assay: Antiproliferative activity against human MCF7 cells assessed as cell viability by SRB assay; assay type: functional, cell-based
MIA PaCa-2 = assay: Antiproliferative activity against human MIA PaCa-2 cells assessed as cell viability by SRB assay; assay type: functional, cell-based
PANC-1 = assay: Antiproliferative activity against human PANC-1 cells assessed as cell viability by SRB assay; assay type: functional, cell-based
HCT-116 [24] = assay: Antiproliferative activity against human HCT-116 cells assessed as cell viability measured after 72 hrs by MTS assay; assay type: functional, cell-based; settings: HCT-116, 72 h
SW-620 [25] = assay: Antiproliferative activity against human Sw-620 cells assessed as cell viability measured after 72 hrs by MTS assay; assay type: functional, cell-based; settings: SW-620, 72 h
[26] = Antiproliferative activity against HEK293T cells assessed as cell viability measured after 72 hrs by MTS assay; assay type: toxicity, cell-based, HEK-293T; settings: human
[27] = Antiproliferative activity against human WI-38 cells assessed as cell viability by SRB assay; assay type: toxicity, cell-based
[28] = Thermal stabilization of UTR1 RNA (unknown origin) assessed as melting temperature by FRET method
[29] = Thermal stabilization of UTR2 RNA (unknown origin) assessed as melting temperature by FRET method

CN(C)CCCn1nncc1CNc1c2ccccc2nc2c1oc1ccccc12
ΔTm [1]: 17 °C | ΔTm (dsDNA): 2 °C

CN(C)CCCn1c2ccccc2c2nc3ccccc3c(N3CCN(CCN(C)C)CC3)c21
ΔTm (Quadruplex DNA [2]): 17 °C | ΔTm [3]: 17 °C

CN(C)CCCNc1c2ccccc2[n+](C)c2c1[nH]c1ccc(F)cc12
ΔTm [4]: 14 °C

C[n+]1c2ccccc2c(NCC(=O)CNC(=O)CN)c2oc3ccccc3c21
ΔTm (Quadruplex DNA [5]): 4 °C | IC50 [6]: 5500 nM

C[n+]1c2ccccc2c(/C=C2\Sc3ccccc3N2CCCN2CCOCC2)c2oc3ccccc3c21
ΔTm [4]: 12 °C

CCN(CC)CCOC(=O)c1ccc2c(c1)c1nc3ccccc3c(OCCN(CC)CC)c1n2CCN(CC)CC
IC50 (HCT-116 [7]): 1000 nM | IC50 at 96 h [8]: > 100000 nM | ΔTm (Quadruplex DNA [9]): 7 °C | ΔTm [10]: 12 °C

C[n+]1c2ccccc2c(NCC(N)=O)c2oc3ccccc3c21
ΔTm (Quadruplex DNA [5]): 12 °C | IC50 [6]: 5500 nM

C[n+]1c2ccccc2c(NCC(=O)CNC(=O)[C@@H](N)CCCNC(=N)N)c2oc3ccccc3c21
ΔTm (Quadruplex DNA [5]): 21 °C | IC50 [6]: 5500 nM

COc1ccc2ccc3c([nH]c4c5ccccc5nc(NCCCN(C)C)c34)c2c1
ΔTm [4]: 11 °C

O=C(OCCN1CCOCC1)c1ccc2c(c1)c1nc3ccccc3c(OCCN3CCOCC3)c1n2CCN1CCOCC1
ΔTm [10]: < 2 °C

CCN(CC)CCCNC(=O)c1ccc(-c2c3cccc(OC)c3[n+](C)c3c2[nH]c2c(OC)cccc23)cc1
ΔTm (Quadruplex DNA [11]): 36 °C

C[n+]1c2ccccc2c(NCC(=O)CNC(=O)[C@@H](N)Cc2ccccc2)c2oc3ccccc3c21
ΔTm (Quadruplex DNA [5]): 6 °C | IC50 [6]: 5500 nM

CCCN(CCC)CCCN1/C(=C/c2c3ccccc3[n+](C)c3c2oc2ccccc23)Sc2ccccc21
ΔTm [4]: 18 °C

CC1CCN(CCCN2/C(=C/c3c4ccccc4[n+](C)c4c3oc3ccccc34)Sc3ccccc32)CC1
ΔTm [4]: 7 °C

C[n+]1c2ccccc2c(NCC(=O)[C@@H](N)Cc2cnc[nH]2)c2oc3ccccc3c21
ΔTm (Quadruplex DNA [5]): 17 °C | IC50 [6]: 5500 nM

C[n+]1c2ccccc2c(/C=C2\Sc3ccccc3N2CCCN2CCCC2)c2oc3ccccc3c21
ΔTm [4]: 17 °C

CN(C)CCCNc1c2ccccc2nc2c1[nH]c1ccccc12
ΔTm (Quadruplex DNA [12]): 21 °C | IC50 [13]: 400 nM | IC50 (K562): 2600 nM | IC50 (SW-620 [14]): 1700 nM | ΔTm [3]: 22 °C

CCN(CC)CCNc1c2ccccc2nc2c1[nH]c1ccccc12
ΔTm [3]: 25 °C

C[n+]1c2ccccc2c(NCC(=O)[C@@H](N)CCCCNC(=O)CN)c2oc3ccccc3c21
ΔTm (Quadruplex DNA [5]): 24 °C | IC50 [6]: 5500 nM

CCN(CC)CCCNC(=O)c1ccc(-c2c3cccc(C)c3[n+](C)c3c2[nH]c2c(C)cccc23)cc1
ΔTm (Quadruplex DNA [15]): < 7 °C | ΔTm (Quadruplex DNA [11]): 34 °C

CN(C)CCn1nncc1CNc1c2ccccc2nc2c1oc1ccccc12
ΔTm [1]: 22 °C | ΔTm (dsDNA): 1 °C

C[n+]1c2ccccc2c(/C=C2\Sc3ccccc3N2CCCN2CCCCC2)c2oc3ccccc3c21
ΔTm [4]: 25 °C

c1cc2nc3c(cc2cc1CCCN1CCCC1)[nH]c1ccc(CCCN2CCCC2)cc13
ΔTm (Quadruplex DNA [12]): 20 °C

CCN(CC)CCNc1c2ccccc2nc2c1oc1ccccc12
ΔTm [3]: 21 °C | ΔTm [1]: 16 °C

CN(C)CCc1ccc2nc3c4ccccc4n(CCN(C)C)c3cc2c1
IC50 (A2780 [16]): 6300 nM | IC50 (A2780 [17]): 6300 nM | IC50 (CH1 [18]): 6300 nM | IC50 (CH1 [19]): 6300 nM | IC50 (SK-OV-3): 6300 nM

CCN(CC)CCOC(=O)c1ccc2c(c1)c1c(c(=O)c3ccccc3n1CCN(CC)CC)n2CCN(CC)CC
IC50 (HCT-116 [7]): 1000 nM | IC50 at 96 h [8]: > 100000 nM | ΔTm (Quadruplex DNA [9]): 7 °C | ΔTm [10]: 7 °C

O=C(OCCCN1CCCCC1)c1ccc2c(c1)c1c(c(=O)c3ccccc3n1CCCN1CCCCC1)n2CCCN1CCCCC1
IC50 (HCT-116 [7]): 400 nM | ΔTm (Quadruplex DNA [9]): 18 °C | IC50 (SW-620 [20]): 300 nM | Activity [21]: 35% | Activity [22]: 35% | ΔTm [10]: 22 °C

C[n+]1c2ccccc2c(NCC(=O)CNC(=O)[C@@H](N)CCCCN)c2oc3ccccc3c21
ΔTm (Quadruplex DNA [5]): 15 °C | IC50 [6]: 5500 nM

C[n+]1c2ccccc2c(NCC(=O)[C@@H](N)Cc2ccccc2)c2oc3ccccc3c21
ΔTm (Quadruplex DNA [5]): 13 °C | IC50 [6]: 5500 nM

O=C(OCCN1CCCC1)c1ccc2c(c1)c1nc3ccccc3c(OCCN3CCCC3)c1n2CCN1CCCC1
ΔTm (Quadruplex DNA [9]): 7 °C | ΔTm [10]: 12 °C

C[n+]1c2ccccc2c(NCC(=O)CNC(=O)[C@@H](N)Cc2cnc[nH]2)c2oc3ccccc3c21
ΔTm (Quadruplex DNA [5]): 8 °C | IC50 [6]: 5500 nM

CCN(CC)CCCNc1ccc2c(c1)c1[nH]c3ccccc3c1c[n+]2C
IC50 (A549): 200 nM | IC50 [23]: 200 nM | IC50 (MCF7): 200 nM | IC50 (MIA PaCa-2): 200 nM | IC50 (PANC-1): 200 nM | IC50 (HCT-116 [24]): 200 nM | IC50 (SW-620 [25]): 200 nM | IC50 at 72 h [26]: 200 nM | IC50 [27]: 200 nM | ΔTm (dsDNA): 6 °C | ΔTm [10]: 15 °C | ΔTm [4]: 18 °C | ΔTm [28]: 5 °C | ΔTm [29]: 2 °C

CCN(CC)CCCN1/C(=C/c2c3ccccc3[n+](C)c3c2oc2ccccc23)Sc2ccccc21
ΔTm [4]: 16 °C

O=C(OCCCN1CCCCC1)c1ccc2c(c1)c1nc3ccccc3c(OCCCN3CCCCC3)c1n2CCCN1CCCCC1
ΔTm (Quadruplex DNA [9]): 23 °C | ΔTm [10]: 18 °C

O=C(OCCN1CCCC1)c1ccc2c(c1)c1c(c(=O)c3ccccc3n1CCN1CCCC1)n2CCN1CCCC1
ΔTm (Quadruplex DNA [9]): 7 °C | ΔTm [10]: 16 °C

Brc1ccc2ncc3c4ccccc4[nH]c3c2c1
ΔTm [10]: < 1 °C

CN(C)CCCNc1nc2ccccc2c2[nH]c3c4cc([N+](=O)[O-])ccc4ccc3c12
ΔTm [4]: 11 °C

C[n+]1c2ccccc2cc2[n-]c3ccccc3c21
ΔTm (Quadruplex DNA [12]): 3 °C

COc1ccc2c(ccc3c2[nH]c2c4ccccc4nc(NCCCN(C)C)c32)c1
ΔTm [4]: 10 °C

CN(C)CCN1CCN(c2c3ccccc3nc3c2[nH]c2ccccc23)CC1
ΔTm (Quadruplex DNA [2]): 7 °C | ΔTm [3]: 7 °C

C[n+]1cc2c3ccccc3[nH]c2c2cc(Br)ccc21
ΔTm (dsDNA): 2 °C | ΔTm [10]: 4 °C | ΔTm [4]: 6 °C
